Experimental data: PubChem BioAssay (NCI)
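In this assay, cells in 96-well plates receive the compound at five concentrations for 48 hours. Endpoints are linearly interpolated between the surrounding concentrations. Here, GI50 denotes the concentration required for 50% inhibition of growth. Definition used: TGI = concentration required for complete inhibition of growth.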

Key:
Experiment in all cases: NCI tumour cell line growth inhibition, 48 h
[1] = test system: MDA-MB-231 breast
[2] = test system: NCI-H522 lung
[3] = test system: NCI-H460 lung
[4] = test system: OVCAR-4 ovarian
[5] = test system: 786-0 renal
[6] = test system: HCT-15 colon
[7] = test system: HOP-92 NSCLC
[8] = test system: SK-MEL-2 melanoma
[9] = test system: KM12 colon
[10] = test system: SN12C renal

CNCCNc1nc2ccccc2c2c(=O)c3cc(OC)ccc3sc12
GI50 [1]: 1.54 µM | TGI [1]: 3.08 µM | GI50 [2]: 1.73 µM | TGI [2]: 3.56 µM | GI50 [3]: 1.71 µM | TGI [3]: 3.25 µM | GI50 [4]: 1.68 µM | TGI [4]: 3.22 µM | GI50 [5]: 1.7 µM | TGI [5]: 3.18 µM | GI50 [6]: 1.39 µM | TGI [6]: 2.83 µM | GI50 [7]: 1.29 µM | TGI [7]: 3.32 µM | GI50 [8]: 1.94 µM | TGI [8]: 3.83 µM | GI50 [9]: 1.8 µM | TGI [9]: 3.48 µM | GI50 [10]: 1.5 µM | TGI [10]: 2.96 µM

CCCCCCNC(=O)Oc1ccc(/C(=C(/C)Cc2ccc(OC)cc2)c2ccc(OCCN(C)C)cc2)cc1
GI50 [1]: 5 µM | TGI [1]: 9.65 µM | GI50 [2]: 5.61 µM | TGI [2]: 10.6 µM | GI50 [3]: 4.22 µM | TGI [3]: 8.93 µM | GI50 [4]: 5.02 µM | TGI [4]: 10.3 µM | GI50 [5]: 4.97 µM | TGI [5]: 9.49 µM | GI50 [6]: 2.02 µM | TGI [6]: 6.6 µM | GI50 [7]: 3.49 µM | TGI [7]: 7.9 µM | GI50 [8]: 5.91 µM | TGI [8]: 11 µM | GI50 [9]: 4.98 µM | TGI [9]: 10.1 µM | GI50 [10]: 4.84 µM | TGI [10]: 9.44 µM

Cn1cc(C2=C(c3cn(C)c4cc(N)ccc34)C(=O)NC2=O)c2ccccc21
GI50 [1]: 4.09 µM | TGI [1]: 16.2 µM | GI50 [2]: 1.36 µM | TGI [2]: 8.53 µM | GI50 [3]: 1.4 µM | TGI [3]: > 25 µM | GI50 [4]: 4.41 µM | TGI [4]: 17.4 µM | GI50 [5]: 3.42 µM | TGI [5]: > 25 µM | GI50 [6]: 1.04 µM | TGI [6]: > 21.6 µM | GI50 [7]: 5.86 µM | TGI [7]: > 18.9 µM | GI50 [8]: 4.26 µM | TGI [8]: 10.6 µM | GI50 [9]: 1.45 µM | TGI [9]: 11.8 µM | GI50 [10]: 3.44 µM | TGI [10]: 17 µM

CC[C@]1(O)C[C@@H]2CN(CCc3c([nH]c4ccccc34)[C@@](C(=O)OC)(c3cc4c(cc3OC)N(C)[C@H]3[C@@](O)(C(N)=O)[C@H](O)[C@]5(CC)[C@@H]6C[C@@H]6CN6CC[C@]43[C@@H]65)C2)C1
GI50 [1]: 0.00548 µM | TGI [1]: > 16.2 µM | GI50 [2]: < 0.00333 µM | TGI [2]: < 0.00333 µM | GI50 [3]: 0.00366 µM | TGI [3]: > 33.3 µM | GI50 [4]: 0.0931 µM | TGI [4]: > 33.3 µM | GI50 [5]: 0.0247 µM | TGI [5]: > 19.3 µM | GI50 [6]: 0.148 µM | TGI [6]: > 21.4 µM | GI50 [7]: < 0.00333 µM | TGI [7]: 1.82 µM | GI50 [8]: < 0.00333 µM | GI50 [9]: < 0.00333 µM | TGI [9]: > 29.8 µM | GI50 [10]: 0.0373 µM | TGI [10]: > 33.3 µM

C[C@]12CC[C@@H](OC(=O)N(CCCl)N=O)C[C@@H]1CC[C@@H]1[C@@H]2CC[C@]2(C)C(=O)CC[C@@H]12
GI50 [1]: 13.5 µM | TGI [1]: 29.8 µM | GI50 [2]: 9.06 µM | TGI [2]: 30.8 µM | GI50 [3]: 0.247 µM | TGI [3]: 1.75 µM | GI50 [4]: 14.9 µM | TGI [4]: 53.4 µM | GI50 [5]: 0.891 µM | TGI [5]: 16.7 µM | GI50 [6]: 12.1 µM | TGI [6]: 32.4 µM | GI50 [7]: 6.79 µM | TGI [7]: 35.9 µM | GI50 [8]: 17.1 µM | TGI [8]: 38 µM | GI50 [9]: 2.81 µM | TGI [9]: 16.3 µM | GI50 [10]: 8.01 µM | TGI [10]: 23.3 µM

CN1c2ccccc2S(=O)(=O)n2c(CCc3ccccc3)nnc21
TGI [1]: > 100 µM | TGI [2]: > 100 µM | TGI [3]: > 100 µM | TGI [4]: > 100 µM | TGI [5]: > 100 µM | TGI [6]: > 100 µM | TGI [7]: 98.7 µM | TGI [8]: > 100 µM | TGI [9]: > 100 µM | TGI [10]: > 100 µM

COc1ccc(/C=C\c2cc(OC)c(OC)c(OC)c2)c(NS(=O)(=O)c2ccc(Cl)cc2)c1O
GI50 [1]: 0.206 µM | TGI [1]: 21.4 µM | GI50 [2]: 0.0848 µM | TGI [2]: 0.607 µM | GI50 [3]: 0.316 µM | TGI [3]: 14.4 µM | GI50 [4]: 0.0973 µM | TGI [4]: > 100 µM | GI50 [5]: 0.572 µM | TGI [5]: 24.8 µM | GI50 [6]: 0.053 µM | TGI [6]: > 100 µM | GI50 [7]: 2.36 µM | TGI [7]: 23.6 µM | GI50 [8]: 0.0659 µM | TGI [8]: 21.3 µM | GI50 [9]: 0.127 µM | TGI [9]: 12.8 µM | GI50 [10]: 0.708 µM | TGI [10]: 46.5 µM

COc1ccc(NC(=O)n2nc(/C=C\c3ccc(O)c(OC)c3)cc2/C=C\c2ccc(O)c(OC)c2)cc1
GI50 [1]: 4.94 µM | TGI [1]: 83.5 µM | GI50 [2]: 1.76 µM | TGI [2]: 12.7 µM | GI50 [3]: 4.24 µM | TGI [3]: 31.4 µM | GI50 [4]: 5.72 µM | TGI [4]: 90.7 µM | GI50 [5]: 4 µM | TGI [5]: 24.3 µM | GI50 [6]: 2.98 µM | TGI [6]: > 100 µM | GI50 [7]: 7.77 µM | TGI [7]: > 100 µM | GI50 [8]: 3.23 µM | TGI [8]: 18.1 µM | GI50 [9]: 3.19 µM | TGI [9]: 20.7 µM | GI50 [10]: 3.05 µM | TGI [10]: 33.7 µM

CC(=O)c1cc(-c2ccccc2N)n(-c2ccc3c(c2)OCO3)c1C
GI50 [1]: 0.134 µM | TGI [1]: > 77 µM | GI50 [2]: 0.139 µM | TGI [2]: 5.49 µM | GI50 [3]: 0.169 µM | TGI [3]: 13.2 µM | GI50 [4]: 0.924 µM | TGI [4]: > 100 µM | GI50 [5]: 0.388 µM | TGI [5]: > 100 µM | GI50 [6]: 0.296 µM | TGI [6]: > 100 µM | GI50 [7]: 0.149 µM | TGI [7]: 24.8 µM | GI50 [8]: 0.31 µM | GI50 [9]: 0.295 µM | TGI [9]: > 37.7 µM | GI50 [10]: 0.135 µM | TGI [10]: > 100 µM

COc1nc(C)cc2c(=O)n(-c3ccccc3)n(CC(O)CN3CCN(c4ccc(Cl)cc4)CC3)c(=O)c12 (stereo not drawn)
GI50 [1]: > 50 µM | TGI [1]: > 50 µM | GI50 [2]: 25.8 µM | TGI [2]: > 50 µM | GI50 [3]: > 50 µM | TGI [3]: > 50 µM | GI50 [4]: 36.8 µM | TGI [4]: > 50 µM | GI50 [5]: 25.8 µM | TGI [5]: > 50 µM | GI50 [6]: > 50 µM | TGI [6]: > 50 µM | GI50 [7]: 7.08 µM | TGI [7]: 18.5 µM | GI50 [8]: 43.1 µM | TGI [8]: > 50 µM | GI50 [9]: > 50 µM | TGI [9]: > 50 µM | GI50 [10]: > 50 µM | TGI [10]: > 50 µM

COC(=O)c1ccc2c(c1)C(=O)c1c-2n(CCCN)c(=O)c2cc(OC)c(OC)cc12
GI50 [1]: 13.6 µM | TGI [1]: 31.5 µM | GI50 [2]: 17.1 µM | TGI [2]: 37.2 µM | GI50 [3]: 13 µM | TGI [3]: 29.5 µM | GI50 [4]: 19.8 µM | TGI [4]: 40 µM | GI50 [5]: 9.72 µM | TGI [5]: 28.1 µM | GI50 [6]: 14.1 µM | TGI [6]: 30.5 µM | GI50 [7]: 14.2 µM | TGI [7]: 32.1 µM | GI50 [8]: 31.2 µM | TGI [8]: > 84.5 µM | GI50 [9]: 7.47 µM | TGI [9]: 26 µM | GI50 [10]: 14.9 µM | TGI [10]: 31.4 µM

Nc1cc2[nH]cnc2c(=O)[nH]1
TGI [1]: > 300 µM | TGI [2]: > 215 µM | TGI [3]: > 300 µM | TGI [4]: > 300 µM | TGI [5]: > 300 µM | TGI [6]: > 300 µM | TGI [7]: > 300 µM | TGI [8]: 125 µM | TGI [9]: > 300 µM | TGI [10]: > 300 µM

COC(=O)C(=O)C(C(=O)C(N)=O)c1nc2ccc(C(=O)c3ccccc3)cc2[nH]c1=O (stereo not drawn)
TGI [1]: > 100 µM | TGI [2]: > 100 µM | TGI [3]: > 100 µM | TGI [4]: > 100 µM | TGI [5]: > 100 µM | TGI [6]: > 100 µM | TGI [7]: > 100 µM | TGI [8]: > 100 µM | TGI [9]: > 100 µM | TGI [10]: > 100 µM
